This note sets out measurements from US9682079B2, “Composition for treatment of pathogens that are resistant to tetracyclines” (BIOVERSYS AG, priority 2013, dated 2017).

Experiment [1] relates to Antibiotic-resistant staphylococcal, enterococcal, enterobacterial or acinetobacter isolates. In words: Broth micro-dilution assay in clinical patient isolates, compound in combination with tetracyclines. The experiment is classed as cell-based. The note with it: 4 μg/ml tetracyclines and 10 μg/ml compound; OD610 16 to 20 hours after inoculation, normalized to DMSO control (100%). The text has this:
Microdilution Assay in Clinical Patient Isolates
Broth Micro-Dilution Assay in Cation-Adjusted Mueller-Hinton (CA-MHB)
The assay protocol is adapted from the Clinical and Laboratory Standards Institute (CLSI) standardized method for broth microdilution. This methodology was used to evaluate the susceptibility of pathogenic clinical isolates towards different antibiotics in combination with a compound of the invention.
Antibiotic-resistant staphylococcal, enterococcal, enterobacterial or acinetobacter isolates were scraped from fresh Orientation Agar plates, suspended in saline solution with the turbidity adjusted to OD610 of 0.1 (corresponds to 0.5 McFarland scale). Subsequently, the cultures were diluted 160× in CA-MHB medium and a volume of 80 μl was dispensed into each well of a 96 well microtiter plate. Plates were covered and incubated for 16 to 20 hours at 35° C. without shaking. Plates were then visually analyzed, scanned and subsequently the OD610 was determined. Average and standard deviations were calculated from at least two wells with the same condition. Values were normalized to the DMSO control (which is 100%).
(§1) Correlation of the synergistic effect of compounds of the invention with tetracyclines on bacterial growth inhibition (% growth relative to DMSO; 4 μg/ml tetracyclines and 10 μg/ml compounds of the invention) and TetR/tetO interaction (% association of TetR to tetO relative to DMSO). Bacterial growth was analysed 16 to 20 hours after inoculation according to CLSI guidelines. OD610 was determined with a Tecan Infinite F200 and normalized to the DMSO control. The interaction of TRIC compounds with the TetR protein and the effect on TetR-tetO operator DNA binding was analyzed with a FortéBio's Octet red and normalized to the DMSO control.
In general terms: In broth dilution the organism is exposed to a series of concentrations in liquid medium.

A further experiment relates to TetR/tetO interaction. In words: DNA/protein (tetO/TetR) interaction assay, FortéBio Octet Red. The note with it: % association of TetR to tetO; compound 10 μg/mL & tetracycline 10 ng/mL mix in running buffer; normalized to DMSO control. The experiment is classed as binding. The procedure: Biacore Based DNA/Protein (tetO/TetR) Interaction Assay
The FortéBio technology (FortéBio, Inc., Menlo Park, Calif., USA) is a novel label-free methodology for analyzing macromolecular ligand/capture interactions. The Octet system can be used to measure real-time, label-free analysis of biomolecular interactions and provide information on affinity, kinetics and concentration. The instrument is designed to assay up to eight samples in parallel in 2 min from a standard 96-well micro-plate. The detection technology utilized in the Octet is based on Biolayer Interferometry (BLI). BLI relies on the reflective property of white light and is implemented in the Octet via the use of fiber optic-based biosensors. The biosensors are coated with molecules chosen to capture the targeted ligands. The measurements were performed on an Octet Red system equipped with streptavidin biosensor tips (SA). Tips were purchased from FortéBio.
Interaction Studies: FortéBio's Octet Red
Interaction analyses were conducted at 30° C. in running buffer (HBS-P+5 mmol/L MgSO4) unless stated otherwise. (HBS-P buffer: 10 mM Hepes (pH 7.4), 150 mM NaCl, 0.005% (v/v) polysorbate P20, and 5 mmol/L MgSO4; a 10×HBS-P buffer from GE Healthcare was used). Temperature control on the Octet was accomplished by holding the instrument at room temperature so that it could be heated to 30° C. Sensor tips were pre-wet for 10 min in running buffer immediately prior to use, and the micro plates used in the Octet were filled with 200 μl of sample or buffer per well and agitated at 600 rpm. For the experiments commercially available precoated streptavidine tips were used (SA).
Biotinylated oligos were loaded onto the FortéBio SA fibers in HBS-P buffer pH 7.4. Protein binding experiments were run with HBS-P buffer unless stated otherwise. After each run the tip was regenerated (maximum 4 times) with running buffer containing 0.3% w/v sodium dodecylsulfate (SDS).
as §1
In general terms: BLI is a label-free optical method that tracks binding on a fibre tip over time.

Turning to `CC(C)CNC(=O)C1CCc2c(O)ccc(O)c2C1` (stereo not shown) [Example 19], the “Growth (% rel. to DMSO)” value in experiment [1] came to 11.50%. Moreover, the “Association (% rel. to DMSO)” value in the experiment with TetR/tetO interaction stood at 54.02%.
The like results for `CC(C)C(=O)NCc1cccc(-c2ccccc2)c1O` [Example 17] were, in that order, 8.11% and 70.49%.
In the case of `O=C(NCc1cc(O)ccc1O)c1cc(F)ccc1F` [Example 8], in experiment [1], the “Growth (% rel. to DMSO)” value stood at 69.68%. For the same compound, the “Association (% rel. to DMSO)” value in the experiment on TetR/tetO interaction is 42.57%.
The corresponding values for `O=C(NCc1cc(O)ccc1O)c1cccc(F)c1` [Example 6] are 60.43% and 25.61%.
`COc1ccc(OC)c2c1CCC(C(=O)NCC(C)C)C2` (stereo not shown) [Example 18]: the “Growth (% rel. to DMSO)” value in experiment [1] came out at 103.70%. In addition, the “Association (% rel. to DMSO)” value in the experiment with TetR/tetO interaction is on record as 13.64%.
The corresponding values for `O=C(NCc1cc(C(F)(F)F)cc(C(F)(F)F)c1)C1CCc2c(O)ccc(O)c2C1` (stereo not shown) [Example 25] are 90.15% and 11.76%.
The like results for `CN(Cc1ccccc1)C(=O)C1CCc2c(O)ccc(O)c2C1` (stereo not shown) [Example 26] were, in that order, 55.92% and 43.52%.
The corresponding values for `COc1ccc(OC)c2c1CCCC2C(=O)NCC(C)C` (stereo not shown) [Example 20, N-isobutyl-5,8-dimethoxy-tetralin-1-carboxamide] are 63.75% and 97.40%.
In the case of `CCCCC(=O)NCc1ccc(-c2ccccc2)cc1O` [Example 12, N-[(2-hydroxy-4-phenyl-phenyl)-methyl]pentanamide], the “Growth (% rel. to DMSO)” value in experiment [1] was 5.76%. The “Association (% rel. to DMSO)” value in the experiment on TetR/tetO interaction amounted to 1.60%.
With `CCCCC(=O)Nc1ccccc1Oc1ccc(Cl)cc1` [Example 15], in experiment [1], the “Growth (% rel. to DMSO)” value turned out to be 4.88%. The “Association (% rel. to DMSO)” value in the experiment with TetR/tetO interaction is on record as 85.19%.
The corresponding values for `O=C(CCc1ccccc1)Nc1ccccc1Oc1ccc(Cl)cc1` [Example 16] are 6.15% and 2.52%.
The corresponding values for `O=C(NCc1cc(O)ccc1O)c1ccccc1` [Example 1, N-[(2,5-dihydroxyphenyl)methyl]benzamide] are 55.20% and 15.84%.
In the case of `CCC(=O)NCc1cc(OC)c(-c2ccccc2)cc1OC` [Example 13], in experiment [1], the “Growth (% rel. to DMSO)” value is 4.74%.
In the case of `O=C(NCc1ccc(-c2ccccc2)cc1)C1CCc2c(O)ccc(O)c2C1` (stereo not shown) [Example 30], the “Growth (% rel. to DMSO)” value in experiment [1] was 15.00%. The “Association (% rel. to DMSO)” value in the experiment on TetR/tetO interaction is listed as 25.35%.
The like results for `O=C(NCc1cc(O)ccc1O)c1cc(C(F)(F)F)cc(C(F)(F)F)c1` [Example 11] were, in that order, 26.14% and 19.59%.
As for `CC(C)(C)c1ccc(CNC(=O)C2CCc3c(O)ccc(O)c3C2)cc1` (stereo not shown) [Example 29], the “Growth (% rel. to DMSO)” value in experiment [1] amounted to 23.58%.
With `O=C(NCc1ccc(F)cc1F)C1CCc2c(O)ccc(O)c2C1` (stereo not shown) [Example 36], in experiment [1], the “Growth (% rel. to DMSO)” value came to 33.52%. The “Association (% rel. to DMSO)” value in the experiment on TetR/tetO interaction came out at 27.89%.
The corresponding values for `O=C(NCc1cc(O)ccc1O)c1ccccc1F` [Example 5] are 56.57% and 30.49%.
The like results for `O=C(NCc1ccc(C(F)(F)F)cc1)C1CCc2c(O)ccc(O)c2C1` (stereo not shown) [Example 27] were, in that order, 58.69% and 23.15%.
For the compound `O=C(Nc1ccccc1Oc1ccc(Cl)cc1)C1CCc2c(O)ccc(O)c2C1` (stereo not shown) [Example 37], the “Growth (% rel. to DMSO)” value in experiment [1] is 10.42%. Further, in the experiment on TetR/tetO interaction, the “Association (% rel. to DMSO)” value is listed as 14.18%.
For the compound `O=C(Nc1nnc(-c2ccc(O)cc2)s1)C1CCc2c(O)ccc(O)c2C1` (stereo not shown) [Example 28], in experiment [1], the “Growth (% rel. to DMSO)” value stood at 46.79%. The “Association (% rel. to DMSO)” value with TetR/tetO interaction is on record as 36.62%.
On to `O=C(Nc1ccccc1)C1CCc2c(O)ccc(O)c2C1` (stereo not shown) [Example 32], for which the “Growth (% rel. to DMSO)” value in experiment [1] was determined as 58.27%. Moreover, in the experiment on TetR/tetO interaction, the “Association (% rel. to DMSO)” value came out at 25.35%.
The like results for `O=C(NCc1cc(F)ccc1O)C1CCc2c(O)ccc(O)c2C1` (stereo not shown) [Example 31] were, in that order, 68.68% and 20.42%.
The corresponding values for `O=C(NCCc1cc(O)ccc1O)c1ccccc1` [Example 3] are 41.10% and 63.20%.
The like results for `O=C(NCc1cc(F)cc(F)c1)C1CCc2c(O)ccc(O)c2C1` (stereo not shown) [Example 23, N-[(3,5-difluorophenyl)methyl]-5,8-dihydroxy-tetralin-2-carboxamide] were, in that order, 8.15% and 22.69%.
Turning to `O=C(NCCCc1ccccc1)C1CCc2c(O)ccc(O)c2C1` (stereo not shown) [Example 33], in experiment [1], the “Growth (% rel. to DMSO)” value is 16.62%. Besides, the “Association (% rel. to DMSO)” value in the experiment on TetR/tetO interaction came to 19.05%.
The corresponding values for `O=C(NCc1cc(F)ccc1F)C1CCc2c(O)ccc(O)c2C1` (stereo not shown) [Example 35] are 25.80% and 30.61%.
As for `CCC(=O)Nc1ccccc1Oc1ccc(Cl)cc1` [Example 14, N-[2-(4-chlorophenoxyl)phenyl]propanamide], the “Growth (% rel. to DMSO)” value in experiment [1] was 18.21%. The “Association (% rel. to DMSO)” value with TetR/tetO interaction stood at 10.26%.
Regarding `O=C(c1cc(O)ccc1O)N1CCN(c2ccccc2)CC1` [Example 4], the “Growth (% rel. to DMSO)” value in experiment [1] is 63.87%.
On to `O=C(NCc1cc(O)ccc1O)c1cc(F)cc(F)c1` [Example 2], for which, in experiment [1], the “Growth (% rel. to DMSO)” value is listed as 34.40%. Further, the “Association (% rel. to DMSO)” value in the experiment on TetR/tetO interaction is 51.60%.
With `O=C(NCc1ccccc1)C1CCc2c(O)ccc(O)c2C1` (stereo not shown) [Example 24], in experiment [1], the “Growth (% rel. to DMSO)” value came out at 48.15%. Also, the “Association (% rel. to DMSO)” value with TetR/tetO interaction stood at 54.12%.
The corresponding values for `O=C(NCC1CCCCC1)C1CCc2c(O)ccc(O)c2C1` (stereo not shown) [Example 34] are 13.58% and 21.09%.
The corresponding values for `CC(C)CNC(=O)C1CCc2c(O)c3c(c(O)c2C1)C(=O)C=CC3=O` (stereo not shown) [Example 22] are 61.29% and 108.99%.
On to `O=C(NCc1cc(O)ccc1O)c1ccc(C(F)(F)F)cc1` [Example 9], for which, in experiment [1], the “Growth (% rel. to DMSO)” value is on record as 25.91%. In the experiment on TetR/tetO interaction, the “Association (% rel. to DMSO)” value is recorded as 16.22%.
Take `O=C(NCc1cc(O)ccc1O)c1cc(F)ccc1O` [Example 7]: the “Growth (% rel. to DMSO)” value in experiment [1] is listed as 56.50%. The “Association (% rel. to DMSO)” value with TetR/tetO interaction is given as 26.83%.
Consider `CC(C)CNC(=O)C1CCc2c(c(O)c3ccccc3c2O)C1` (stereo not shown) [Example 21], for which the “Growth (% rel. to DMSO)” value in experiment [1] is on record as 25.77%.
As to `O=C(NCc1cc(O)ccc1O)c1cc(C(F)(F)F)ccc1C(F)(F)F` [Example 10], in experiment [1], the “Growth (% rel. to DMSO)” value turned out to be 47.14%. Moreover, in the experiment on TetR/tetO interaction, the “Association (% rel. to DMSO)” value amounted to 25.68%.
